In brackets after ≈: the same amount, converted by molar mass. Several values for one entry are separate records, joined by “and”; a condition that tells them apart may be missing. Equal entries are not always repeated. Where two headings read alike, the source gives them in different places.
What was measured:
[1] = Antioxidant activity, DPPH free radical scavenging; format: biochemical; conditions: absorbance at 517 nm
[2] = system: non-enzymatic lipid peroxidation in rat brain homogenate; experiment: In-vitro lipid peroxidation inhibition; conditions: Fe2+-ascorbate
acetylcholinesterase = target: T1, acetylcholinesterase (Rattus norvegicus, UniProt P37136); experiment: In-vitro anti-acetylcholinesterase activity; format: biochemical
T1 sequence (P37136 32-614): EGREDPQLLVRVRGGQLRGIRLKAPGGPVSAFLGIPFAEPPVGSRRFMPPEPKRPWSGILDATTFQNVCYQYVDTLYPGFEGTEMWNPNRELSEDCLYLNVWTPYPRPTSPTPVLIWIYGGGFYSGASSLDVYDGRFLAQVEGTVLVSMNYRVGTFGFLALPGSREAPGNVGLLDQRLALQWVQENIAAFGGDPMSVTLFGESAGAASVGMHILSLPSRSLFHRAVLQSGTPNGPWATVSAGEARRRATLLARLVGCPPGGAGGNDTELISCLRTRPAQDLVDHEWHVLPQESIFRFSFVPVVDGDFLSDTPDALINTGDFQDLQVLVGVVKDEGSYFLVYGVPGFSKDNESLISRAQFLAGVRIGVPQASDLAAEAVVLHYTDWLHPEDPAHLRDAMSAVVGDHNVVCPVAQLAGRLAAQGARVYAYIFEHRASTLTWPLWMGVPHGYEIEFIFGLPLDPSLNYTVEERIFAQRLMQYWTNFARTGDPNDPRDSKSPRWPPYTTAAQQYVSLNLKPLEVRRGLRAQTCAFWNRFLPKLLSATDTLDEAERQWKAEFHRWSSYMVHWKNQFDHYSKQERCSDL

mice = experiment: Peripheral anti-nociception, acetic acid-induced writhing; format: in vivo, Mus musculus; conditions: for Number of Writhing (Mean ± SEM): counted for 15 min, n = 5
microbial strains = experiment: Antimicrobial disc diffusion, all test strains together; format: cell-based
butyrylcholinesterase = butyrylcholinesterase (Rattus norvegicus, UniProt Q9JKC1); experiment: In-vitro anti-butyrylcholinesterase activity; format: biochemical
Sequence of butyrylcholinesterase (Q9JKC1 24-597): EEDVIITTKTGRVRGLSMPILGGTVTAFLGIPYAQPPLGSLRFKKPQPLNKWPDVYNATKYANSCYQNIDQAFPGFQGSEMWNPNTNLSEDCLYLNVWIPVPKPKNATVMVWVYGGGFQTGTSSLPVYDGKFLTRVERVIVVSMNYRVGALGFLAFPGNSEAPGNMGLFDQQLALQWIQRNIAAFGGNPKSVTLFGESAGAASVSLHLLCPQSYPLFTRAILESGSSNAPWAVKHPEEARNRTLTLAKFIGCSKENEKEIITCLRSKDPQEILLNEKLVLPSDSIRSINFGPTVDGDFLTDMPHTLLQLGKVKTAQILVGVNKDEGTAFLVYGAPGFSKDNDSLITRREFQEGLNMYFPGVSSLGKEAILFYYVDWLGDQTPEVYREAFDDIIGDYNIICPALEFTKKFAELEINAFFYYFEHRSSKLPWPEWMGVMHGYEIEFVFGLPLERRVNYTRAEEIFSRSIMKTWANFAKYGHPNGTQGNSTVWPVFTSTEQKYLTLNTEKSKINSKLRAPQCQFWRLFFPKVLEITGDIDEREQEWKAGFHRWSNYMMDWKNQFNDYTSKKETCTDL

rat hind paw oedema = experiment: Anti-inflammatory activity, carrageenan-induced rat hind paw oedema; format: in vivo, Sprague Dawley rat; conditions: test compounds 100 mg/kg; for Mean paw edema (volume in ml) ± SEM: n = 5
Swiss-albino mice = conditions: mouse, in vivo, po; for Reaction time: 25 mg/kg
Sarcina lutea = experiment: Disc diffusion; format: cell-based; conditions: standard Ciprofloxacin 5 µg/disc
Escherichia coli = experiment: Disc diffusion; format: cell-based; conditions: standard Ciprofloxacin 5 µg/disc
Aspergillus niger = experiment: Disc diffusion; format: cell-based; conditions: standard Ciprofloxacin 5 µg/disc
Shigella dysenteriae = experiment: Disc diffusion; format: cell-based; conditions: standard Ciprofloxacin 5 µg/disc
Vibrio parahaemolyticus = experiment: Disc diffusion; format: cell-based; conditions: standard Ciprofloxacin 5 µg/disc
Bacillus cereus = experiment: Disc diffusion; format: cell-based; conditions: standard Ciprofloxacin 5 µg/disc
Pseudomonas aeruginosa = experiment: Disc diffusion; format: cell-based; conditions: standard Ciprofloxacin 5 µg/disc
Staphylococcus aureus = experiment: Disc diffusion; format: cell-based; conditions: standard Ciprofloxacin 5 µg/disc
Bacillus subtilis = experiment: Disc diffusion; format: cell-based; conditions: standard Ciprofloxacin 5 µg/disc
Saccharomyces cerevisiae = experiment: Disc diffusion; format: cell-based; conditions: standard Ciprofloxacin 5 µg/disc
Salmonella paratyphi = experiment: Disc diffusion; format: cell-based; conditions: standard Ciprofloxacin 5 µg/disc
Candida albicans = experiment: Disc diffusion; format: cell-based; conditions: standard Ciprofloxacin 5 µg/disc
Shigella boydii = experiment: Disc diffusion; format: cell-based; conditions: standard Ciprofloxacin 5 µg/disc
Vibrio mimicus = experiment: Disc diffusion; format: cell-based; conditions: standard Ciprofloxacin 5 µg/disc
Salmonella typhi = experiment: Disc diffusion; format: cell-based; conditions: standard Ciprofloxacin 5 µg/disc
Bacillus megaterium = experiment: Disc diffusion; format: cell-based; conditions: standard Ciprofloxacin 5 µg/disc

Compound | IC50 (antioxidant activity, DPPH scavenging) [1] | IC50 (lipid peroxidation inhibition) [2] | IC50 (acetylcholinesterase) | % of Inhibition of Writhing (mice; 25 mg/kg) | Number of Writhing (Mean ± SEM) (mice; 25 mg/kg) | % of Inhibition of Writhing (mice; 50 mg/kg) | Number of Writhing (Mean ± SEM) (mice; 50 mg/kg) | antimicrobial activity (in words) (microbial strains) | % Paw edema inhibition (rat hind paw oedema; 1st hour) | Mean paw edema (volume in ml) ± SEM (rat hind paw oedema; 1st hour) | % Paw edema inhibition (rat hind paw oedema; 2nd hour) | Mean paw edema (volume in ml) ± SEM (rat hind paw oedema; 2nd hour) | % Paw edema inhibition (rat hind paw oedema; 3rd hour) | Mean paw edema (volume in ml) ± SEM (rat hind paw oedema; 3rd hour) | % Paw edema inhibition (rat hind paw oedema; 4th hour) | Mean paw edema (volume in ml) ± SEM (rat hind paw oedema; 4th hour) | other results
Cc1cc(C(C)(C)C)c(O)c(C(C)(C)C)c1 [BHT, tert-butyl-1-hydroxytoluene, reference compound] | 14.44 µg/mL (≈ 65.5 µM) |  |  |  |  |  |  |  |  |  |  |  |  |  |  |  | 
O.Oc1cc(O)c2c(c1)O[C@H](c1ccc(O)c(O)c1)[C@@H](O)C2 [Catechin, reference compound] |  | 59.36 µg/mL |  |  |  |  |  |  |  |  |  |  |  |  |  |  | 
Oc1ccc(Cn2c(-c3ccc(O)cc3)nc3ccccc32)cc1 [Compound 3a, 1-(4-hydroxybenzyl)-2-(4-hydroxyphenyl)-1H-benzimidazole] | 16.73 µg/mL (≈ 52.9 µM) | 75.53 µg/mL (≈ 239 µM) | 231 µM | 49.25% | 13.6 ± 0.430 | 29.10% | 19.0 ± 1.649 | did not show any antimicrobial activity | 34.75% | 0.768 ± 0.0575 mL | 36.07% | 0.78 ± 0.023 mL | 38.93% | 0.80 ± 0.043 mL | 37.59% | 0.88 ± 0.034 mL | IC50 (butyrylcholinesterase): 49.1 µM
Clc1ccc(Cn2c(-c3ccc(Cl)cc3)nc3ccccc32)cc1 [Compound 3b, 1-(4-chlorobenzyl)-2-(4-chlorophenyl)-1H-benzimidazole] |  |  | 187 µM | 26.87% | 19.6 ± 0.797 | 13.43% | 23.2 ± 0.464 | did not show any antimicrobial activity | 38.98% | 0.724 ± 0.057 mL | 40.16% | 0.73 ± 0.029 mL | 41.98% | 0.76 ± 0.048 mL | 44.68% | 0.78 ± 0.056 mL | IC50 (butyrylcholinesterase): 66.3 µM
COc1ccc(Cn2c(-c3ccc(OC)cc3)nc3ccccc32)cc1 [Compound 3c, 1-(4-methoxybenzyl)-2-(4-methoxyphenyl)-1H-benzimidazole] | 634.22 µg/mL (≈ 1840 µM) |  |  | 54.10% | 12.3 ± 0.831 | 42.54% | 15.4 ± 0.697 | did not show any antimicrobial activity | 35.59% | 0.758 ± 0.035 mL | 35.25% | 0.79 ± 0.043 mL | 37.40% | 0.82 ± 0.022 mL | 37.59% | 0.88 ± 0.046 mL | Reaction time (Swiss-albino mice): 9.8 ± 0.86 and 10.2 ± 0.86 and 10.6 ± 0.68 and 11.8 ± 0.66; % Elongation value (Swiss-albino mice; 50 mg/kg): 42.86% and 44.19% and 50% and 44.23%
Clc1ccc(-c2nc3ccccc3[nH]2)cc1 [Compound 4, 2-(4-chlorophenyl)-1H-benzimidazole] | 114.18 µg/mL (≈ 499 µM) | 98.55 µg/mL (≈ 431 µM) |  | 2.99% | 26.0 ± 1.001 | 13.81% | 23.1 ± 0.843 |  | 28.81% | 0.838 ± 0.051 mL | 27.87% | 0.88 ± 0.027 mL | 29.77% | 0.92 ± 0.017 mL | 36.88% | 0.89 ± 0.033 mL | Diameter of zone of inhibition (mm) (Sarcina lutea): 7 mm; Diameter of zone of inhibition (mm) (Escherichia coli): 10 mm; Diameter of zone of inhibition (mm) (Aspergillus niger): 10 mm; Diameter of zone of inhibition (mm) (Shigella dysenteriae): 8 mm; Diameter of zone of inhibition (mm) (Vibrio parahaemolyticus): 7 mm; peripheral analgesic activity (in words) (mice; 25 mg/kg and 50 mg/kg): did not show any peripheral analgesic activity; Diameter of zone of inhibition (mm) (Bacillus cereus): 7 mm; Diameter of zone of inhibition (mm) (Pseudomonas aeruginosa): 8 mm; Diameter of zone of inhibition (mm) (Staphylococcus aureus): 0 mm; Diameter of zone of inhibition (mm) (Bacillus subtilis): 9 mm; Diameter of zone of inhibition (mm) (Saccharomyces cerevisiae): 9 mm; Diameter of zone of inhibition (mm) (Salmonella paratyphi): 0 mm; Diameter of zone of inhibition (mm) (Candida albicans): 0 mm; Diameter of zone of inhibition (mm) (Shigella boydii): 9 mm; Diameter of zone of inhibition (mm) (Vibrio mimicus): 0 mm; Diameter of zone of inhibition (mm) (Salmonella typhi): 9 mm; Reaction time (Swiss-albino mice): 9.4 ± 0.93 and 8.8 ± 1.24 and 10.6 ± 0.68 and 12.6 ± 0.93; Diameter of zone of inhibition (mm) (Bacillus megaterium): 9 mm
c1ccc(COCc2nc3ccccc3[nH]2)cc1 [Compound 6, 2-((benzyloxy)-methyl)-1H-benzimidazole] | 579.19 µg/mL (≈ 2430 µM) |  | 124 µM | 37.69% | 16.7 ± 0.889 | 55.60% | 11.9 ± 0.458 |  | 22.88% | 0.906 ± 0.047 mL | 23.77% | 0.93 ± 0.028 mL | 25.19% | 0.98 ± 0.018 mL | 31.91% | 0.96 ± 0.039 mL | Diameter of zone of inhibition (mm) (Sarcina lutea): 7 mm; Diameter of zone of inhibition (mm) (Escherichia coli): 0 mm; Diameter of zone of inhibition (mm) (Aspergillus niger): 0 mm; Diameter of zone of inhibition (mm) (Shigella dysenteriae): 0 mm; Diameter of zone of inhibition (mm) (Vibrio parahaemolyticus): 10 mm; Diameter of zone of inhibition (mm) (Bacillus cereus): 8 mm; Diameter of zone of inhibition (mm) (Pseudomonas aeruginosa): 7 mm; Diameter of zone of inhibition (mm) (Staphylococcus aureus): 7 mm; Diameter of zone of inhibition (mm) (Bacillus subtilis): 10 mm; Diameter of zone of inhibition (mm) (Saccharomyces cerevisiae): 7 mm; Diameter of zone of inhibition (mm) (Salmonella paratyphi): 8 mm; Diameter of zone of inhibition (mm) (Candida albicans): 0 mm; Diameter of zone of inhibition (mm) (Shigella boydii): 7 mm; Diameter of zone of inhibition (mm) (Vibrio mimicus): 9 mm; Diameter of zone of inhibition (mm) (Salmonella typhi): 8 mm; Diameter of zone of inhibition (mm) (Bacillus megaterium): 7 mm
O=C(O)Cc1ccccc1Nc1c(Cl)cccc1Cl [Diclofenac sodium, diclofenac sodium, reference compound] |  |  |  |  |  |  |  |  | 23.73% |  | 31.15% |  | 38.93% |  | 45.39% |  | % of Inhibition of Writhing (mice; standard diclofenac sodium, dose column 0.1 ml/10 g (method: 25 mg/kg)): 91.79%
CN1CC[C@]23c4c5ccc(O)c4O[C@H]2[C@@H](O)C=C[C@H]3[C@H]1C5 [morphine, Morphine, reference compound] |  |  |  |  |  |  |  |  |  |  |  |  |  |  |  |  | % Elongation value (Swiss-albino mice): 48.08% and 82.5%

Source: paper PMC8717171 (Saudi Journal of Biological Sciences, 2021)
